According to US7361263B2, “Water treatment apparatus and method” (Sanyo Electric Co., Ltd., priority 2002, dated 2008):

Key:
[1] = tested on: Staphylococcus aureus (staphylococcus bacteria) FDA 209P; assay: Test of antibacterial activity of amikacin sulfate (MIC, small amount broth dilution); format: cell-based
Experimental: (§1) In accordance with the MIC measurement by a small amount broth dilution method which is the standard method of the Japanese Society of Chemotherapy, the antibacterial activity of amikacin sulfate was evaluated. As the culture medium for measuring sensitivity, Cation Supplemented Mueller-Hinton Broth: CSMHB (obtained from EIKEN CHEMICAL CO., LTD.) was employed. This CSMHB was dividedly-poured 90 μl each into a U-shaped bottom 96-well microplate. Samples taken 0, 2, 4 and 6 hours from initiation of electrolysis described in the above 1. were prepared. A diluted solution was prepared in accordance with the standard method for each of these samples. […] The bacilli used in the present example are identical to the two types of bacilli used in Example 1, i.e. Staphylococcus aureus (staphylococcus bacteria) FDA […] and Escherichia coli (coliform bacillus) NIHJ JC-2. A solution including bacillus for inoculation similar to that of Example 1 was prepared. The solution including bacillus was inoculated approximately 0.005 ml each into each well of the plate set forth above within 15 minutes from preparation of the solution including bacillus. In this plate, a medium not containing the agent was poured into 1-2 wells as the control of the growth of the bacillus. Cultivation was conducted for 18 to 24 hours at 35° C. The evaluation method is identical to that employed in Example 1.

[2] = tested on: Escherichia coli (coliform bacillus) NIHJ JC-2; assay: as above; format: cell-based
Experimental: as §1

[3] = Ion chromatograph and total nitrogen analysis of electrolyzed amikacin sulfate solution; format: physicochemical; settings: for Nitrogen Concentration Org-N: T-N minus NO3—N, NO2—N, NH4—N
[4] = High performance liquid chromatograph analysis of electrolyzed amikacin sulfate solution; format: physicochemical
[5] = 6 hours from initiation of electrolysis

NCC[C@H](O)C(=O)N[C@@H]1C[C@H](N)[C@@H](O[C@H]2O[C@H](CN)[C@@H](O)[C@H](O)[C@H]2O)[C@H](O)[C@H]1O[C@H]1O[C@H](CO)[C@@H](O)[C@H](N)[C@H]1O.O=S(=O)(O)O.O=S(=O)(O)O [amikacin sulfate, Amikacin sulfate]
minimum inhibitory concentration (MIC) ([1]; electrolyzing time 0 hours): 0.195 µg/mL
relative value of the MIC (MIC at 0 hours set as 1) ([1]; electrolyzing time 0 hours): 1
minimum inhibitory concentration (MIC) ([1]; electrolyzing time 2 hours): 1.56 µg/mL
relative value of the MIC (MIC at 0 hours set as 1) ([1]; electrolyzing time 2 hours): ⅛
minimum inhibitory concentration (MIC) ([1]; electrolyzing time 4 hours): 6.25 µg/mL
relative value of the MIC (MIC at 0 hours set as 1) ([1]; electrolyzing time 4 hours): 1/32
minimum inhibitory concentration (MIC) ([1]; electrolyzing time 6 hours): 100 µg/mL
relative value of the MIC (MIC at 0 hours set as 1) ([1]; electrolyzing time 6 hours): 1/512
minimum inhibitory concentration (MIC) ([2]; 6 hours from initiation of electrolysis, as tested): > 100 µg/mL
minimum inhibitory concentration (MIC) ([2]; electrolyzing time 0 hours): 3.125 µg/mL
relative value of the MIC (MIC at 0 hours set as 1) ([2]; electrolyzing time 0 hours): 1
minimum inhibitory concentration (MIC) ([2]; electrolyzing time 2 hours): 12.5 µg/mL
relative value of the MIC (MIC at 0 hours set as 1) ([2]; electrolyzing time 2 hours): ¼
minimum inhibitory concentration (MIC) ([2]; electrolyzing time 4 hours): 50 µg/mL
relative value of the MIC (MIC at 0 hours set as 1) ([2]; electrolyzing time 4 hours): 1/16
minimum inhibitory concentration (MIC), calculated based on formula (4) ([2]; electrolyzing time 6 hours, calculated): 664 µg/mL
relative value of the MIC (MIC at 0 hours set as 1) ([2]; electrolyzing time 6 hours, from calculated MIC): 1/212
Nitrate nitrogen (NO3—N) share of the total nitrogen (T-N) [3, 5]: approximately 50%
ammonia nitrogen (NH4—N) share of the total nitrogen (T-N) [3, 5]: approximately 50%
Nitrogen Concentration NH4—N ([3]; electrolyzing time 0 hours): 0 mg/L
Nitrogen Concentration NO2—N ([3]; electrolyzing time 0 hours): 0 mg/L
Nitrogen Concentration NO3—N ([3]; electrolyzing time 0 hours): 0.22 mg/L
Nitrogen Concentration T-N ([3]; electrolyzing time 0 hours): 80.1 mg/L
Nitrogen Concentration Org-N ([3]; electrolyzing time 0 hours): 79.88 mg/L
Nitrogen Concentration NH4—N ([3]; electrolyzing time 1 hour): 4.18 mg/L
Nitrogen Concentration NO2—N ([3]; electrolyzing time 1 hour): 0 mg/L
Nitrogen Concentration NO3—N ([3]; electrolyzing time 1 hour): 1 mg/L
Nitrogen Concentration Org-N ([3]; electrolyzing time 1 hour): 25.52 mg/L
Nitrogen Concentration NH4—N ([3]; electrolyzing time 2 hours): 9.06 mg/L
Nitrogen Concentration NO2—N ([3]; electrolyzing time 2 hours): 0 mg/L
Nitrogen Concentration NO3—N ([3]; electrolyzing time 2 hours): 2.39 mg/L
Nitrogen Concentration T-N ([3]; electrolyzing time 2 hours): 29.65 mg/L
Nitrogen Concentration Org-N ([3]; electrolyzing time 2 hours): 18.20 mg/L
Nitrogen Concentration NH4—N ([3]; electrolyzing time 3 hours): 10.93 mg/L
Nitrogen Concentration NO2—N ([3]; electrolyzing time 3 hours): 0 mg/L
Nitrogen Concentration NO3—N ([3]; electrolyzing time 3 hours): 4.21 mg/L
Nitrogen Concentration T-N ([3]; electrolyzing time 3 hours): 32.17 mg/L
Nitrogen Concentration Org-N ([3]; electrolyzing time 3 hours): 17.03 mg/L
Nitrogen Concentration NH4—N ([3]; electrolyzing time 4 hours): 13.43 mg/L
Nitrogen Concentration NO2—N ([3]; electrolyzing time 4 hours): 0 mg/L
Nitrogen Concentration NO3—N ([3]; electrolyzing time 4 hours): 8.6 mg/L
Nitrogen Concentration T-N ([3]; electrolyzing time 4 hours): 32.75 mg/L
Nitrogen Concentration Org-N ([3]; electrolyzing time 4 hours): 10.72 mg/L
Nitrogen Concentration NH4—N ([3]; electrolyzing time 5 hours): 16 mg/L
Nitrogen Concentration NO2—N ([3]; electrolyzing time 5 hours): 0 mg/L
Nitrogen Concentration NO3—N ([3]; electrolyzing time 5 hours): 11.82 mg/L
Nitrogen Concentration T-N ([3]; electrolyzing time 5 hours): 33.04 mg/L
Nitrogen Concentration Org-N ([3]; electrolyzing time 5 hours): 5.22 mg/L
Nitrogen Concentration NH4—N ([3]; electrolyzing time 6 hours): 17.84 mg/L
Nitrogen Concentration NO2—N ([3]; electrolyzing time 6 hours): 0 mg/L
Nitrogen Concentration NO3—N ([3]; electrolyzing time 6 hours): 16.94 mg/L
Nitrogen Concentration T-N ([3]; electrolyzing time 6 hours): 32.27 mg/L
Nitrogen Concentration Org-N ([3]; electrolyzing time 6 hours): -2.51 mg/L
amikacin sulfate decomposed ([4]; 2 hours from initiation of electrolysis): approximately 90%
amikacin sulfate decomposed ([4]; 4 hours and thereafter from initiation of electrolysis): approximately 99%
Concentration of amikacin sulfate ([4]; electrolyzing time 0 hours (taken as 1,000 mg/L)): 1000 µg/mL
Concentration of amikacin sulfate ([4]; electrolyzing time 2 hours, from peak area at retention time 4.2 minutes): 98.579 µg/mL
Concentration of amikacin sulfate ([4]; electrolyzing time 4 hours, from peak area at retention time 4.2 minutes): 15.914 µg/mL
Concentration of amikacin sulfate ([4]; electrolyzing time 6 hours, from peak area at retention time 4.2 minutes): 10.911 µg/mL
